Experimental data as given in PubChem BioAssay AID179 (DTP/NCI, 2004).
Values joined by “and” are separate entries in the source; they are usually repeats but may differ in a detail not shown here. Identical values can stand only once. Active and inactive are the calls of the source.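 Rule for the calls: active = compounds giving half or more protection of infected cells from virus-caused growth loss, again on retest; inactive = the rest.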 Where a SMILES comes first, the peptide text is derived from it. [ ]: non-standard residue; d: D form. The star is where a group is joined. ξ: configuration not given here. Bz = O=C(c1ccccc1)*; Bn = c1ccc(C*)cc1; ξC = NC(CS)C(=O)O

Tested on: CEM cells HIV-1 protection, formazan growth assay
Experiment: NCI AIDS Antiviral Assay
Conditions: for IC50: measured here: growth of uninfected CEM cells
How it was run: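 Steps: treat uninfected and HIV-1-infected human CEM cells at five drug levels; quantify growth by soluble formazan; retest any compound reaching 50% protection; classify actives from the retest.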

Compound | EC50 | IC50 | outcome
COc1ccc(C(C2=C(O)CC(C)OC2=O)C2=C(O)CC(C)OC2=O)cc1 (stereo not drawn) | > 661 µM | 427 µM | 
COc1cccc(N)c1N | > 1170 µM | 18.2 µM | 
COC(=O)C(N)CSCc1ccccc1 (stereo not drawn) | > 692 µM | 589 µM | 
COc1ccc(CCNCCCC2c3ccccc3-c3ccccc32)cc1OC | > 87.1 µM | 4.9 µM | 
O=c1ccc2cc3ccc4cccc5ccc(c2o1)c3c45 |  |  | inactive
CCOC(=O)C1=C(NC(C)(C)C)OC/C1=N\NC(=O)Cc1ccccc1 | > 72.4 µM | > 72.4 µM | 
O=S(O)Cc1ccccc1CSSSCc1ccccc1CS(=O)O | > 200 µM | 102 µM | 
CCOC(=O)CN1C(=O)Cc2ccccc21 | > 200 µM | 97.7 µM | 
CCOC(NC(=O)CC)(C(F)(F)F)C(F)(F)F |  |  | inactive
O=C(O)CC[N+]1=CCC(c2ccccc2)(c2ccccc2)O1 | > 832 µM | > 832 µM | 
O=C(CN1CCCCC1)c1ccc2c(c1)Sc1ccccc1O2 | > 200 µM | 3.47 µM | 
O=c1oc2ccccc2c(O)c1-c1cccc2ccccc12 |  |  | inactive
O=C(Nc1ccccc1)N1N=C(c2ccccc2)C1c1ccccc1 (stereo not drawn) | > 200 µM | 24.5 µM | 
CC(=O)ON1C(c2ccc([N+](=O)[O-])cc2)OCC2OC(n3cc(C)c(=O)[nH]c3=O)C[C@H]21 (stereo partly drawn) | > 200 µM | > 200 µM | 
N#CC1=C(N)N(/N=C/c2ccco2)C(c2ccco2)C1(C#N)C#N (stereo not drawn) | > 200 µM | 7.94 µM | 
O=P(c1ccccc1)(c1ccccc1)C1CC=C(c2ccccc2)C2(CCCC2)C1 (stereo not drawn) | > 8.71 µM | > 8.71 µM | 
C=CCn1c(=S)[nH]c2c(Cl)cc(Cl)cc2c1=O | > 200 µM | 107 µM | 
O=S(=O)([O-])[O-].O=c1[nH]cnc2[nH]ncc12.O=c1[nH]cnc2[nH]ncc12.[Cu+2] | > 83.2 µM | 52.5 µM | 
O=C(CC1(O)C(=O)Nc2c(Cl)ccc(Cl)c21)c1ccc2ccccc2c1 (stereo not drawn) | > 245 µM | 14.5 µM | 
O=C1/C(=C/c2cccc(Cl)c2)Cc2ccccc21 | > 28.2 µM | > 28.2 µM | 
CC(=O)OC1CCC2(COS(=O)(=O)c3ccc(C)cc3)C(=CCC3C2CCC2(C)C(C(C)CCCC(C)C)CCC32)C1 (stereo not drawn) | > 200 µM | > 200 µM | 
COc1cc(/C=C2/SC(c3ccccc3)N(c3ccccc3Cl)C2=O)cc(OC)c1OC (stereo not drawn) | > 200 µM | 43.7 µM | 

Compound | EC50 | IC50 | outcome
S=C1SSC(=S)SS1 | > 33.1 µM | > 33.1 µM | 
OC1C2CCN(CC2)C1CNC12CC3CC(CC(C3)C1)C2 (stereo not drawn) | > 1740 µM | 295 µM | 
CC(=O)N1CN=C2Sc3ccccc3N2C1 | > 200 µM | > 200 µM | 
Nc1ncnc2c1ccn2CC#CCO | > 200 µM | > 200 µM | 
S=C(Nc1ccccc1)N(/N=C/C=C/c1ccccc1)c1nnc(-c2ccccc2)c(-c2ccccc2)n1 | > 70.8 µM | 43.7 µM | 
Cc1ccc(NC=O)c(-c2c(N)[nH]c(=S)[nH]c2=O)c1 | > 200 µM | 148 µM | 
COC(=O)c1sc2c(SC#N)c3ccccn3c2c1C |  |  | inactive
COC(=O)/C=C\COCC1C2CCC(=O)C21 (stereo not drawn) | > 50.1 µM | 28.2 µM | 
C/C=C/C(=O)N1C(=O)OC[C@@H]1c1ccccc1 | > 200 µM | 6.92 µM | 
O=C1CC(c2ccccc2)C2(C(=O)NC(=S)NC2=O)C(c2ccccc2)C1 (stereo not drawn) | > 75.9 µM | 55 µM | 
CC(=O)c1ccc(N2C(=O)C3c4[nH]c5ccccc5c4C4CCC(C(C)(C)C)CC4C3C2=O)cc1 (stereo not drawn) | > 11.2 µM | > 11.2 µM | 
CCCCCCCCCCCc1c2oc3ccc([N+](=O)[O-])cc3nc-2cc(Nc2cc([N+](=O)[O-])ccc2O)c1=O | > 3.31 µM | > 3.31 µM | 
Cc1cccc(Cl)c1NC=O |  |  | inactive
N#Cc1c(-c2ccc(Cl)cc2)c2c(n(C3OC(CO)C(O)C(O)C3O)c1=S)CCCC2 (stereo not drawn) | > 200 µM | 69.2 µM | 
CC(C)(C)C1CCC(=O)/C(=C/CC2CC(=O)N(c3ccccc3)C(=O)C2)C1 (stereo not drawn) | > 200 µM | 11.2 µM | 
CC(C)(C)OC(=O)NC1CCCCC1NC(=O)C(=O)NC1CCCCC1NC(=O)OC(C)(C)C (stereo not drawn) | > 100 µM | > 100 µM | 
O=C(N1CC2(CN(C(=O)C(F)(F)F)CC3(C1)OCCO3)OCCO2)C(F)(F)F | > 200 µM | > 200 µM | 
COc1cc(OC)c(OC)cc1/C=C1\C=Cc2ccccc21 | > 17.8 µM | > 17.8 µM | 
O=[N+]([O-])c1ccc2c(N=Nc3ccc4ccccc4c3O)c(O)cc(S(=O)(=O)O)c2c1 | > 200 µM | 27.5 µM | 
O=C1/C(=C/c2ccc(Cl)cc2)NC(=S)N1CN1CCCCC1 | > 200 µM | 28.2 µM | 
C1CCC2(CC1)O[C@@H]1[C@@H](O2)[C@@H](O[C@H]2O[C@@H]3COC4(CCCCC4)O[C@H]3[C@@H]3OC4(CCCCC4)O[C@@H]23)O[C@@H]2COC3(CCCCC3)O[C@@H]12 | > 100 µM | > 100 µM | 
O=C(Nc1nc2c(=O)[nH]cnc2s1)c1ccccc1 | > 200 µM | > 200 µM | 

Compound | EC50 | IC50 | outcome
CC1=NN(C(=O)c2ccccc2Br)C(=O)C1N=Nc1ccccc1C(=O)O (stereo not drawn) |  |  | inactive
C/C(=N/O)C1CC=C(S(=O)(=O)c2ccccc2)C1 (stereo not drawn) |  |  | inactive
C/C(=N/NC(=O)C(N)=O)C(CC(C(=O)Nc1ccccc1C)/C(C)=N\NC(=O)C(N)=O)C(=O)Nc1ccccc1C (stereo not drawn) | > 158 µM | 79.4 µM | 
CC(=O)CCC(=O)CC(O)(C(F)(F)F)C(F)(F)F | > 200 µM | 33.1 µM | 
CC(C)N=C1CCCC1C(=S)SSC(=S)C1CCCC1=NC(C)C (stereo not drawn) | > 200 µM | 10.7 µM | 
CS(=O)(=O)N1CC(CCl)c2ccc(NO)cc21 (stereo not drawn) | > 200 µM | 3.72 µM | 
COc1cc(/C=C2\CCC/C(=C\c3cc(OC)c(O)c(OC)c3)C2=O)cc(OC)c1O | > 200 µM | 0.933 µM | 
CC(C)(C)N1C(=O)c2ccccc2C1(O)C(F)(F)F (stereo not drawn) | > 200 µM | 135 µM | 
O=C1NC2CCCCCC2C12CCCCC2 (stereo not drawn) |  |  | inactive
CC(=O)OCC1OC(n2c(-c3ccccc3)c(N=Nc3ccc(Cl)cc3)c(C)c(C#N)c2=S)C(OC(C)=O)C(OC(C)=O)C1OC(C)=O (stereo not drawn) | > 200 µM | 24.5 µM and 95.5 µM | 
Cc1ccc(S(=O)(=O)c2ccc(C)cc2[N+](=O)[O-])c([N+](=O)[O-])c1 | > 40.7 µM | > 40.7 µM | 
COc1ccc(/C(O)=C/c2nc3ccccc3n2C)cc1 | > 178 µM | 74.1 µM | 
CCC12C=CCN3CC[C@@]4(c5cc([C@@]6(C(=O)OC)CC7CN(CCc8c6[nH]c6ccccc86)C[C@](O)(CC)C7)c(OC)cc5N(C)[C@H]4[C@]4(OCOC4=O)[C@@H]1O)C32 (stereo partly drawn) |  |  | inactive
O=C(O)c1ccccc1C(=O)Cc1ccccc1 | > 200 µM | > 200 µM | 
O=C(O)CCC(NC(=O)c1ccccc1)C(=O)O (stereo not drawn) |  |  | inactive
NC(=S)N/N=C1\CCCC\C1=N/NC(N)=S | > 200 µM | 17.8 µM | 
COC(=O)C(CSCc1ccccc1)NC(=O)CNC(=O)c1ccccc1 (stereo not drawn) (Bz-Gly-[ξC](Bn)-OMe) | > 245 µM | 219 µM | 
COc1c(O)ccc2oc3cc(O)cc(O)c3c(=O)c12 | > 200 µM | 145 µM | 
CCOCCOCCOCOCCOCCOCC | > 200 µM | > 200 µM | 
COc1ccc(C(c2ccc(C(C)C)cc(=O)c2O)c2c(O)cc3oc(-c4ccccc4)cc(=O)c3c2O)cc1 (stereo not drawn) |  |  | inactive
CC(=O)OC1C(CN2CCOC2=O)OC(n2ccc(=O)[nH]c2=O)C1OC(C)=O (stereo not drawn) | > 200 µM | > 200 µM | 
COC(=O)/C=C/c1ccc2c(c1)CCC2 | > 200 µM | 6.92 µM | 

Compound | EC50 | IC50 | outcome
O=C(CCN(C(=O)O)S(=O)(=O)c1ccc(NC(=O)c2ccccc2)cc1)NC1CCCCC1 | > 525 µM | > 525 µM | 
COc1cc(Cc2nnc(N)nc2N)cc(OC)c1OC | > 17.8 µM | > 17.8 µM | 
CCOc1ccc(N=C2NC(=O)C(CC(=O)Nc3ccccc3[N+](=O)[O-])S2)cc1 (stereo not drawn) | > 316 µM | > 316 µM | 
O=c1c2ccccc2n2c(-c3ccc(O)cc3)nnc2n1-c1ccccc1 | > 200 µM | > 100 µM | 
CC1=C(C(=O)N[C@@H](Cc2ccccc2)C(=O)O)N2C(=O)[C@@H](NC(=O)[C@@H](N)CC(C)C)[C@H]2SC1 | 174 µM | > 200 µM | 
CCCCc1ccc(Nc2nc(Cl)c3c(ncn3C3CC(Oc4ccc(C)cc4)C(COc4ccc(C)cc4)O3)n2)cc1 (stereo not drawn) | > 200 µM | > 200 µM | 
CCc1c(C)c(C#N)c(=S)n(C2OC(COC(C)=O)C(OC(C)=O)C(OC(C)=O)C2OC(C)=O)c1-c1ccccc1 (stereo not drawn) | > 200 µM | 102 µM | 
CN(C)CCCNC(=O)c1cc(NC(=O)c2cc(NC(=O)[C@@H]3C[C@H]3C(=O)Nc3cc(C(=O)Nc4cc(C(=O)NCCCN(C)C)n(C)c4)n(C)c3)cn2C)cn1C |  |  | inactive
N#CCCN(CCC#N)c1ccc(/C=C2\N=C(COc3ccc(Cl)cc3Cl)OC2=O)cc1 | > 537 µM | 490 µM | 
O=c1[nH]c(=O)n(COCCO)c2ccsc12 | > 200 µM | > 200 µM | 
CCC1=C(C(C)=O)[C@@H]2CCCCC(C(=O)OC)[C@@H]2C1=O (stereo partly drawn) | > 200 µM | > 200 µM | 
COc1ccc(/C(=N\N=C(N)N)C(c2ccc(OC)cc2)C2OC(=O)c3ccccc32)cc1 (stereo not drawn) | > 3.24 µM | > 3.24 µM | 
O=C1N=C2SC=C(NC(=S)Nc3ccccc3)N2NC12c1ccccc1-c1ccccc12 | > 200 µM | 74.1 µM | 
CC1(c2cccc3ccccc23)OC(=O)c2cccc(F)c21 (stereo not drawn) | > 36.3 µM | 5.89 µM | 
CC(C)(C)OC(=O)c1cccnc1/C=N/O | > 589 µM | 186 µM | 
O=C(C1OC1c1ccc([N+](=O)[O-])cc1)C12CC3CC(CC(C3)C1)C2 (stereo not drawn) | > 200 µM | 12.3 µM | 
COC1C2c3ccccc3C(C#N)(Cc3ccc4c(c32)OCO4)N1C(=O)c1ccccc1 (stereo not drawn) |  |  | inactive
Clc1cccc(N2CCN(CCN3CCc4c([nH]c5ccccc45)C3c3cccnc3)CC2)c1 (stereo not drawn) | > 2.19 µM | > 2.19 µM | 
Cc1ccc2c(c1)-c1nc(N)c(C#N)c(-c3ccccc3)c1CCS2(=O)=O | > 200 µM | > 200 µM | 
Cc1ccc(Oc2ccc([N+](=O)[O-])cc2[N+](=O)[O-])c(C)c1 |  |  | inactive
